Data: patent US20180071317A1, “USE OF AGENTS THAT ALTER THE PERITUMORAL ENVIRONMENT FOR THE TREATMENT OF CANCER” (SERVICIO ANDALUZ DE SALUD, priority 2011, published 2018)

What was measured:
Type in all cases: cell-based
[1] = system: fibroblasts (PHF) co-cultured with tumor cells of human pancreatic adenocarcinoma (CAPAN-1); assay: Marker expression (IHC) in PHF co-cultured with CAPAN-1 tumor cells; conditions: co-culture with CAPAN-1; SP 1 μM; 48 h;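 also: cultures grown in fresh plasma from a healthy human donor, run in six replicates, value is percent of fibroblasts positive for each marker, compared with fibroblasts cultured alone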
Method: (§1) All cultures were maintained 48 hours, following which the same cells were included in paraffin blocks for subsequent analysis of the expression of different markers by immunohistochemistry (see Example 1). The primary antibodies used to perform immunohistochemical assays and their concentration are detailed in Example 2. All experiments were carried out sixfold. Analyzed markers in fibroblast cells (stromal cells) were: TGF-α, TGF-β1, TGF-β2, TGF-β3, SPARC, MMP-3, MMP-7, MMP-9, MMP-11, MMP-13 and MMP-14.

[2] = system: fibroblasts (PHF) cells co-cultured with human T lymphoma tumor (DERL-7); assay: Marker expression (IHC) in PHF co-cultured with DERL-7 tumor cells; conditions: PHF co-cultured with DERL-7 + SP
Method: as §1

[3] = system: fibroblast cells in co-culture with cells isolated from primary human tumors; assay: Marker expression (IHC) in fibroblasts co-cultured with primary human tumor cells (colon, pancreatic, lung carcinoma, glioma, multiple myeloma)
Method: To check that the interaction of the human primary tumor cells with stromal cells, [human fibroblasts,] stimulates the secretion of substances of importance for survival and tumor progression, co-cultures were performed using stromal cells with human fibroblast-tumor cells obtained directly from primary human tumors.
On this occasion, in order to identify, using immunohistochemical techniques, the secretion of substances of importance for the survival and progression of tumors, the following antibodies were used: TGF-α (SAB4502953), TGF-β1 (SAB4502954), TGF-β2 (SAB4502956), TGF-β3 (SAB4502957), SPARC (HPA002989), MMP-3 (HPA007875), MMP-7 (SAB4501894), MMP-9 (SAB4501896), MMP-11 (SAB4501898) MMP-13 (SAB4501900) and MMP-14 (SAB4501901) using specific antibodies against them. All antibodies used were rabbit polyclonal antibodies obtained from Sigma-Aldrich and were used at a concentration of 1/1000 to achieve these immunohistochemical studies. All experiments were carried out sixfold.

[4] = Primary tumor cells (colon carcinoma) co-cultured + fibroblast + SP (1 μM)
[5] = co-culture with cells isolated from glioma, SP 1 μM
[6] = co-culture with cells isolated from lung cancer, SP 1 μM
[7] = co-culture with cells isolated from multiple myeloma, SP 1 μM
[8] = co-culture with cells isolated from pancreatic carcinoma, SP 1 μM

CSCC[C@H](NC(=O)[C@H](CC(C)C)NC(=O)CNC(=O)[C@H](Cc1ccccc1)NC(=O)[C@H](Cc1ccccc1)NC(=O)[C@H](CCC(N)=O)NC(=O)[C@H](CCC(N)=O)NC(=O)[C@@H]1CCCN1C(=O)[C@H](CCCCN)NC(=O)[C@@H]1CCCN1C(=O)[C@@H](N)CCCNC(=N)N)C(N)=O [SP]
PHF cells expressing MMP-3 [1]: 44.4 ± 1.6%
PHF cells expressing MMP-7 [1]: 58.2 ± 2.4%
PHF cells expressing MMP-9 [1]: 56.4 ± 1.5%
PHF cells expressing MMP-11 [1]: 25.3 ± 1.5%
PHF cells expressing MMP-13 [1]: 55 ± 3.6%
PHF cells expressing MMP-14 [1]: 47.2 ± 4.7%
PHF cells expressing SPARC [1]: 49 ± 1.4%
PHF cells expressing TGF-α [1]: 42.4 ± 2.1%
PHF cells expressing TGF-β1 [1]: 37.6 ± 1.4%
PHF cells expressing TGF-β2 [1]: 42.4 ± 6.1%
PHF cells expressing TGF-β3 [1]: 43 ± 2.6%
cells expressing MMP-3 [2]: 63.4 ± 3.7%
cells expressing MMP-7 [2]: 66.1 ± 4.8%
cells expressing MMP-9 [2]: 62.3 ± 3.4%
cells expressing MMP-11 [2]: 67.8 ± 4.8%
cells expressing MMP-13 [2]: 61 ± 5.3%
cells expressing MMP-14 [2]: 58.4 ± 3.5%
cells expressing SPARC [2]: 67 ± 4.2%
cells expressing TGF-α [2]: 62.5 ± 3.1%
cells expressing TGF-β1 [2]: 64.5 ± 4.3%
cells expressing TGF-β2 [2]: 70.6 ± 4.1%
cells expressing TGF-β3 [2]: 61 ± 5.6%
Percentage of fibroblast cells which expressed MMP-3 [3, 4]: 47.4 ± 2.4%
Percentage of fibroblast cells which expressed MMP-7 [3, 4]: 55.1 ± 3.6%
Percentage of fibroblast cells which expressed MMP-9 [3, 4]: 54.7 ± 4.5%
Percentage of fibroblast cells which expressed MMP-11 [3, 4]: 28.4 ± 4.4%
Percentage of fibroblast cells which expressed MMP-13 [3, 4]: 43.4 ± 4.6%
Percentage of fibroblast cells which expressed MMP-14 [3, 4]: 48.6 ± 5.6%
Percentage of fibroblast cells which expressed SPARC [3, 4]: 47 ± 2.7%
Percentage of fibroblast cells which expressed TGFα [3, 4]: 45.5 ± 4.2%
Percentage of fibroblast cells which expressed TGFβ1 [3, 4]: 35.3 ± 2.3%
Percentage of fibroblast cells which expressed TGFβ2 [3, 4]: 44.5 ± 3.6%
Percentage of fibroblast cells which expressed TGFβ3 [3, 4]: 45 ± 3.9%
Percentage of fibroblast cells which expressed MMP-3 [3, 5]: 48.4 ± 5.1%
Percentage of fibroblast cells which expressed MMP-7 [3, 5]: 59.4 ± 5.7%
Percentage of fibroblast cells which expressed MMP-9 [3, 5]: 55.5 ± 4.5%
Percentage of fibroblast cells which expressed MMP-11 [3, 5]: 28.9 ± 4.7%
Percentage of fibroblast cells which expressed MMP-13 [3, 5]: 48.0 ± 5.6%
Percentage of fibroblast cells which expressed MMP-14 [3, 5]: 46.3 ± 3.6%
Percentage of fibroblast cells which expressed SPARC [3, 5]: 56.2 ± 4.2%
Percentage of fibroblast cells which expressed TGFα [3, 5]: 38.4 ± 2.3%
Percentage of fibroblast cells which expressed TGFβ1 [3, 5]: 35.4 ± 2.6%
Percentage of fibroblast cells which expressed TGFβ2 [3, 5]: 42.4 ± 4.2%
Percentage of fibroblast cells which expressed TGFβ3 [3, 5]: 52.1 ± 3.7%
Percentage of fibroblast cells which expressed MMP-3 [3, 6]: 51.5 ± 5.8%
Percentage of fibroblast cells which expressed MMP-7 [3, 6]: 54.4 ± 6.3%
Percentage of fibroblast cells which expressed MMP-9 [3, 6]: 56.5 ± 4.6%
Percentage of fibroblast cells which expressed MMP-11 [3, 6]: 38.6 ± 3.4%
Percentage of fibroblast cells which expressed MMP-13 [3, 6]: 46.3 ± 3.4%
Percentage of fibroblast cells which expressed MMP-14 [3, 6]: 47.6 ± 5.6%
Percentage of fibroblast cells which expressed SPARC [3, 6]: 47.3 ± 4.2%
Percentage of fibroblast cells which expressed TGFα [3, 6]: 37.5 ± 2.3%
Percentage of fibroblast cells which expressed TGFβ1 [3, 6]: 37.3 ± 3.3%
Percentage of fibroblast cells which expressed TGFβ2 [3, 6]: 52.3 ± 2.8%
Percentage of fibroblast cells which expressed TGFβ3 [3, 6]: 46.1 ± 4.3%
Percentage of fibroblast cells which expressed MMP-3 [3, 7]: 46.6 ± 5.7%
Percentage of fibroblast cells which expressed MMP-7 [3, 7]: 57.6 ± 4.1%
Percentage of fibroblast cells which expressed MMP-9 [3, 7]: 57.3 ± 4.5%
Percentage of fibroblast cells which expressed MMP-11 [3, 7]: 29.4 ± 3.1%
Percentage of fibroblast cells which expressed MMP-13 [3, 7]: 47.5 ± 4.3%
Percentage of fibroblast cells which expressed MMP-14 [3, 7]: 47.2 ± 3.4%
Percentage of fibroblast cells which expressed SPARC [3, 7]: 46.3 ± 3.2%
Percentage of fibroblast cells which expressed TGFα [3, 7]: 49.3 ± 3.3%
Percentage of fibroblast cells which expressed TGFβ1 [3, 7]: 45.6 ± 4.2%
Percentage of fibroblast cells which expressed TGFβ2 [3, 7]: 52.3 ± 3.2%
Percentage of fibroblast cells which expressed TGFβ3 [3, 7]: 47.4 ± 3.5%
Percentage of fibroblast cells which expressed MMP-3 [3, 8]: 47.5 ± 6.1%
Percentage of fibroblast cells which expressed MMP-7 [3, 8]: 56.6 ± 5.1%
Percentage of fibroblast cells which expressed MMP-9 [3, 8]: 54.1 ± 5.2%
Percentage of fibroblast cells which expressed MMP-11 [3, 8]: 27.1 ± 6.2%
Percentage of fibroblast cells which expressed MMP-13 [3, 8]: 57.2 ± 4.7%
Percentage of fibroblast cells which expressed MMP-14 [3, 8]: 46.2 ± 5.1%
Percentage of fibroblast cells which expressed SPARC [3, 8]: 43.7 ± 4.5%
Percentage of fibroblast cells which expressed TGFα [3, 8]: 44.2 ± 4.5%
Percentage of fibroblast cells which expressed TGFβ2 [3, 8]: 43.6 ± 7.4%
Percentage of fibroblast cells which expressed TGFβ3 [3, 8]: 45.4 ± 5.6%
